Experimental data published in ChEMBL document CHEMBL4325894, “An update on sphingosine-1-phosphate receptor 1 modulators” (Bioorg Med Chem Lett, 2018).

Assays:
IEC-6 [1] = assay: Inhibition of apoptosis in rat IEC-6 cells assessed as decrease in CPT-induced DNA fragmentation; format: functional, cell-based
IEC-6 [2] = assay: Inhibition of apoptosis in rat IEC-6 cells assessed as decrease in CPT-induced DNA fragmentation relative to control; format: functional
Mus musculus [3] = assay: Immunosuppressive activity in ip dosed C57BL6 mouse assessed as decrease in CD8+ T lymphocyte count after 5 hrs by FACS analysis; format: functional
Mus musculus [4] = assay: Immunosuppressive activity in C57BL6 mouse assessed as decrease in CD8+ T lymphocyte count at 10 mg/kg, ip after 5 hrs by FACS analysis relative to control; format: functional; parameters: scale not given: the % may be the effect or the level left
Mus musculus [5] = assay: Immunosuppressive activity in ip dosed C57BL6 mouse assessed as decrease in CD4+ T lymphocyte count after 5 hrs by FACS analysis; format: functional
Mus musculus [6] = assay: Immunosuppressive activity in C57BL6 mouse assessed as decrease in B220+ B lymphocyte count at 10 mg/kg, ip after 5 hrs by FACS analysis relative to control; format: functional; parameters: scale not given: the % may be the effect or the level left
Homo sapiens [7] = species on record: Homo sapiens; assay: Selectivity for S1P1 (unknown origin) over S1P5 (unknown origin)
Mus musculus [8] = assay: Immunosuppressive activity in ip dosed C57BL6 mouse assessed as decrease in B220+ B lymphocyte count after 5 hrs by FACS analysis; format: functional
Mus musculus [9] = assay: Immunosuppressive activity in C57BL6 mouse assessed as decrease in CD4+ T lymphocyte count at 10 mg/kg, ip after 5 hrs by FACS analysis relative to control; format: functional; parameters: scale not given: the % may be the effect or the level left
[10] = Half life in human; format: ADME
[11] = target: T1, Sphingosine 1-phosphate receptor 1 (Homo sapiens, UniProt P21453); assay: Modulation of S1P1 receptor internalization in HCtAEC assessed as S1P1 expression at 100 nM after 1 hr by FACS analysis relative to control
T1 sequence (P21453 whole entry): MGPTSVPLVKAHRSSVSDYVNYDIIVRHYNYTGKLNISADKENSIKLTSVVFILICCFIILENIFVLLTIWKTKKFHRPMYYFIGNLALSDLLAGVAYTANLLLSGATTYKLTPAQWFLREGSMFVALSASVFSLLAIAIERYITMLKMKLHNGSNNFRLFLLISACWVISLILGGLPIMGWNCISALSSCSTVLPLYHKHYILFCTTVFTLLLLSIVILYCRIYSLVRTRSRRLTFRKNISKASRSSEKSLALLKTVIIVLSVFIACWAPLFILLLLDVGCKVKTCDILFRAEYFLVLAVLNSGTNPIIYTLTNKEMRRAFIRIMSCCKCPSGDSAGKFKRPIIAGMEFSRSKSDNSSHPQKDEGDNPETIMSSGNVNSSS

Homo sapiens [12] = assay: Immunosuppressive activity in po dosed human assessed as decrease in peripheral blood lymphocyte count measured after 24 hrs; format: functional
Homo sapiens [13] = assay: Immunosuppressive activity in po dosed human assessed as decrease in peripheral blood lymphocyte count measured after 21 days of continuous treatment; format: functional; settings: 504 h
[14] = target: T1, Sphingosine 1-phosphate receptor 1; assay: Modulation of S1P1 receptor internalization in HCtAEC assessed as S1P1 expression at 1000 nM after 1 hr by FACS analysis relative to control
Homo sapiens [15] = assay: Immunosuppressive activity in RRMS patient assessed as decrease in peripheral blood lymphocytes at 20 to 40 mg, po administered as daily dose measured after 8 days relative to control; parameters: scale not given: the % may be the effect or the level left
[16] = Half life in human at 0.5 mg, po administered as single dose measured on day 14 by LC-MS/MS analysis; format: ADME, organism-based; settings: in vivo
[17] = target: T1, Sphingosine 1-phosphate receptor 1; assay: Activation of human recombinant S1P1 expressed in CHO cell membranes after 120 mins by GTP-gamma-35S-binding assay
Homo sapiens [18] = species on record: Homo sapiens; assay: Immunosuppressive activity in human assessed as decrease in peripheral blood lymphocytes at 1 mg measured over 2 days relative to control; format: functional; parameters: scale not given: the % may be the effect or the level left
Homo sapiens [19] = assay: Immunosuppressive activity in human assessed as decrease in peripheral blood lymphocyte count at 0.1 mg/kg, po qd relative to control; format: functional; parameters: scale not given: the % may be the effect or the level left
Homo sapiens [20] = assay: In vivo modulatory activity at S1P1 receptor in SPMS patient assessed as reduction in newly enlarge T2 lesion at 1.25 to 2 mg, po administered as daily dose relative to control; format: functional; parameters: scale not given: the % may be the effect or the level left
Homo sapiens [21] = assay: Decrease in B lymphocytes in human at 10 mg dosed daily for 28 days measured within 4 to 6 hrs post dose relative to control; format: functional; parameters: scale not given: the % may be the effect or the level left
Homo sapiens [22] = assay: Decrease in naive T cells in human at 10 mg dosed daily for 28 days measured within 4 to 6 hrs post dose relative to control; format: functional; parameters: scale not given: the % may be the effect or the level left
[23] = Half life in human plasma; format: ADME, cell-free
Homo sapiens [24] = assay: Decrease in CD4+ T lymphocytes in human at 10 mg dosed daily for 28 days measured within 4 to 6 hrs post dose relative to control; format: functional; parameters: scale not given: the % may be the effect or the level left
Homo sapiens [25] = assay: Immunosuppressive activity in human assessed as decrease in peripheral blood lymphocyte count at 30 mg/kg, po bid relative to control; format: functional; parameters: scale not given: the % may be the effect or the level left

In the case of `CCCCCCCCc1ccc(CC[C@@](N)(CO)CCP(=O)(O)O)cc1`, the EC50 (IEC-6 [1]) is reported as 75 nM and the “inhibition (INH)” value (IEC-6 [2]) is reported as 50%.
In the case of `CCOc1ccc(-c2nc(-c3cccc4c3CCC4NCCO)no2)cc1OCC` (centres undefined), the ED50 (Mus musculus [3]) is reported as 2 mg/kg, the Activity (Mus musculus [4]) is reported as 84% and the ED50 (Mus musculus [5]) is reported as 0.5 mg/kg. The Activity (Mus musculus [6]) was 63%, the Selectivity Index (Homo sapiens [7]) was 10000 and the ED50 (Mus musculus [8]) was 1 mg/kg. The Activity (Mus musculus [9]) was 83%.
Compound `CC(C)Oc1ccc(-c2nc(-c3cccc4c3CC[C@@H]4NCCO)no2)cc1C#N` [OZANIMOD] has a half-life [10] of 19 h.
In the case of `C[C@H](Oc1ccc(-c2nc(-c3ccc4[nH]cnc4c3)no2)cc1C(F)(F)F)C(F)(F)F` [ASP-4058], the Activity [11] is reported as 86%, the ED50 (Homo sapiens [12]) is reported as 0.1 mg/kg and the ED50 (Homo sapiens [13]) is reported as 0.023 mg/kg. It also gave an Activity [14] of 23%.
`CCC/N=C1/S/C(=C\c2ccc(OC[C@@H](O)CO)c(Cl)c2)C(=O)N1c1ccccc1C` showed an Activity (Homo sapiens [15]) of 62%.
In the case of `CCCc1ccc(COc2ccc3c(c2)CCC(CN2CC(C(=O)O)C2)=C3C)c(OC)c1`, the half-life [16] is reported as 81.9 to 89 h.
`O=C(O)CCNCc1ccc2sc(-c3ccc(-c4ccccc4)c(C(F)(F)F)c3)cc2c1` gave an EC50 [17] of 1.2 nM.
In the case of `CCCCCCCCc1ccc(CC[C@](N)(/C=C/P(=O)(O)O)CO)cc1`, the “inhibition (INH)” value (IEC-6 [2]) is reported as 21%.
With `CCCCCCCCc1ccc(CCC(N)(CO)CO)cc1` [FINGOLIMOD] the Activity (Homo sapiens [18]) was 38%, the half-life [10] was 168 h and the Activity (Homo sapiens [19]) was 80 - 86%. The ED50 (Homo sapiens [12]) was 0.041 mg/kg and the ED50 (Homo sapiens [13]) was 0.02 mg/kg.
For `CCc1cc(/C(C)=N/OCc2ccc(C3CCCCC3)c(C(F)(F)F)c2)ccc1CN1CC(C(=O)O)C1` [SIPONIMOD], the Activity (Homo sapiens [20]) was “<=80%”, the Activity (Homo sapiens [21]) was 88% and the Activity (Homo sapiens [22]) was 88%. For the same compound, the half-life [23] was 56.4 to 216 h and the Activity (Homo sapiens [24]) was 88%.
For `Cc1cc([C@@H](C)Nc2cccc(-c3cc(C)c(C(=O)N[C@@H](C)C(=O)O)c(C)c3)c2)ccc1Cl`, the Activity (Homo sapiens [25]) was 75 - 85%.
